Results from ChEMBL document CHEMBL5036315, “Synthesis, Structure-Activity Relationships, and In Vivo Evaluation of Novel Tetrahydropyran-Based Thiodisaccharide Mimics as Galectin-3 Inhibitors” (J Med Chem, 2021).
In brackets after ≈: the same amount, converted by molar mass.

How the values were obtained:
[1] = Oral bioavailability in C57BL/6 mouse at 30 mg/kg measured upto 24 hrs; assay type: ADME, organism-based; conditions: in vivo
[2] = Cmax in C57BL/6 mouse at 30 mg/kg, po measured upto 24 hrs; assay type: ADME, organism-based; parameters: route oral, dose 30 mg/kg, time <=24; conditions: in vivo
[3] = AUC in C57BL/6 mouse at 30 mg/kg, po measured upto 24 hrs; assay type: ADME, organism-based; parameters: route oral, dose 30 mg/kg, time <=24; conditions: in vivo
[4] = Metabolic stability in human liver microsomes assessed as compound remaining at 0.5 uM incubated for10 mins in presence of NADPH by LC-MS/MS analysis; assay type: ADME, Microsome; conditions: read-out: Stability
[5] = Metabolic stability in mouse liver microsomes assessed as compound remaining at 0.5 uM incubated for10 mins in presence of NADPH by LC-MS/MS analysis; assay type: ADME, Microsome; conditions: read-out: Stability
[6] = Clearance in C57BL/6 mouse at 2 mg/kg, iv measured upto 24 hrs; assay type: ADME, organism-based; conditions: in vivo
[7] = Volume of distribution at steady state in C57BL/6 mouse at 2 mg/kg, iv measured upto 24 hrs; assay type: ADME, organism-based; conditions: in vivo
[8] = Half life in C57BL/6 mouse at 2 mg/kg, iv measured upto 24 hrs; assay type: ADME, organism-based; conditions: in vivo
[9] = Aqueous solubility of the compound at pH 1; assay type: physicochemical; conditions: aqueous solution
[10] = Aqueous solubility of the compound at pH 7.4; assay type: physicochemical; conditions: aqueous solution
[11] = Bioavailability in C57BL/6 mouse at 30 mg/kg, sc measured upto 24 hrs; assay type: ADME, organism-based; conditions: in vivo
[12] = Cmax in C57BL/6 mouse at 30 mg/kg, sc measured upto 24 hrs; assay type: ADME, organism-based; parameters: route subcutaneous, dose 30 mg/kg, time <=24; conditions: in vivo
[13] = AUC in C57BL/6 mouse at 30 mg/kg, sc measured upto 24 hrs; assay type: ADME, organism-based; parameters: route subcutaneous, dose 30 mg/kg, time <=24; conditions: in vivo

SMILES	bioavailability [1]	Cmax [2]	AUC at 24 h [3]	remaining at 10 min, 0.5 µM [4]	remaining at 10 min, 0.5 µM [5]	clearance [6]	Vss [7]	half-life [8]	solubility [9]	solubility [10]	F ([11]; mouse, 30 mg/kg, 24 h)	Cmax [12]	AUC ([13]; mouse, 24 h)	bioavailability ([11]; C57BL/6, mouse)	AUC at 24 h ([13]; C57BL/6, mouse)
COc1cnc(-c2cn([C@H]3COC[C@@H](S[C@@H]4O[C@H](CO)[C@H](O)[C@H](n5cc(-c6cc(F)c(F)c(F)c6)nn5)[C@H]4OC)[C@@H]3O)nn2)nc1	–	–	–	–	–	–	–	–	< 1 µg/mL	< 1 µg/mL	–	–	–	–	–
COc1ncc(-c2cn([C@H]3COC[C@@H](S[C@@H]4O[C@H](CO)[C@H](O)[C@H](n5cc(-c6cc(F)c(F)c(F)c6)nn5)[C@H]4OC)[C@@H]3O)nn2)cn1	–	–	–	–	–	–	–	–	< 1 µg/mL	–	–	–	–	–	–
CO[C@@H]1[C@@H](n2cc(-c3cc(F)c(F)c(F)c3)nn2)[C@@H](O)[C@@H](CO)O[C@H]1S[C@@H]1COC[C@H](n2cc(-c3cncnc3)nn2)[C@H]1O	–	–	–	45%	89%	–	2.4 L/kg	1.4 h	6 µg/mL (≈ 9.42 µM)	3 µg/mL (≈ 4.71 µM)	100%	5900 nM	49 µM·h	–	–
CO[C@@H]1[C@@H](n2cc(-c3cc(F)c(F)c(F)c3)nn2)[C@@H](O)[C@@H](CO)O[C@H]1S[C@@H]1COC[C@H](n2cc(-c3nccs3)nn2)[C@H]1O	–	–	–	–	–	–	–	–	< 1 µg/mL	–	–	–	–	–	–
OC[C@H]1O[C@@H](S[C@@H]2O[C@H](CO)[C@H](O)[C@H](n3cc(-c4cccc(F)c4)nn3)[C@H]2O)[C@H](O)[C@@H](n2cc(-c3cccc(F)c3)nn2)[C@H]1O [OLITIGALTIN]	1%	300 nM	0.3 µM·h	–	–	30 mL/min/kg	0.7 L/kg	1.6 h	–	–	–	10300 nM	–	66%	17 µM·h

Second part, the molecule after the results:

bioavailability [1]	Cmax [2]	AUC at 24 h [3]	remaining at 10 min, 0.5 µM [4]	remaining at 10 min, 0.5 µM [5]	clearance [6]	Vss [7]	half-life [8]	solubility [9]	solubility [10]	F ([11]; mouse, 30 mg/kg, 24 h)	Cmax [12]	AUC ([13]; mouse, 24 h)	bioavailability ([11]; C57BL/6, mouse)	AUC at 24 h ([13]; C57BL/6, mouse)	SMILES
0.3%	10 nM	0.04 µM·h	98%	92%	69 mL/min/kg	1.6 L/kg	1.2 h	–	–	–	–	–	–	–	CO[C@@H]1[C@@H](n2cc(-c3cc(F)c(F)c(F)c3)nn2)[C@@H](O)[C@@H](CO)O[C@H]1S[C@@H]1COC[C@H](n2cc(-c3cccc(O)c3)nn2)[C@H]1O
2%	200 nM	0.3 µM·h	78%	72%	59 mL/min/kg	3.6 L/kg	1.9 h	–	–	–	–	–	–	–	CO[C@@H]1[C@@H](n2cc(-c3cc(F)c(F)c(F)c3)nn2)[C@@H](O)[C@@H](CO)O[C@H]1S[C@@H]1COC[C@H](n2cc(-c3cccc(F)c3)nn2)[C@H]1O
